Measurements taken from article PMC9211429 (Antimicrobial Agents and Chemotherapy, 2022).
Values belong to the molecule of their own block, whether it stands above or below them.

Legend:
[1] = test system: HIV; design: method as in earlier work; details: cited from earlier work
[2] = clinical; details: human, in vivo; for AUC(0-t): AUC0-24 PBMC
[3] = human, in vivo
[4] = clinical; details: human, in vivo, AUC0-24 Plasma

SMILES: CC(C)CN(C[C@@H](O)[C@H](Cc1ccccc1)NC(=O)O[C@H]1CO[C@H]2OCC[C@H]21)S(=O)(=O)c1ccc(N)cc1 [DRV, darunavir]
90% effective concentration (EC90) [1]: 0.2 µg/mL | AUC(0-t) [2]: 17500 ng·h/mL

AUC0-24 PBMC [3]: 12807 ng·h/mL | AUC(0-t) [2]: 14900 ng·h/mL | Kp ([2]; Ctrough in PBMC relative to plasma, throughout the protocol): ~0.25 | Kp ([2]; PBMC/Plasma Ctrough ratio): 0.19 | AUC(0-t) [4]: 31600 ng·h/mL | AUC0-24 Plasma (human, in vivo): 30967 ng·h/mL
SMILES: C[C@@H]1CCO[C@H]2Cn3cc(C(=O)NCc4ccc(F)cc4F)c(=O)c(O)c3C(=O)N12 [DTG, dolutegravir]

SMILES: CO[C@H]1/C=C/O[C@@]2(C)Oc3c(C)c(O)c4c(O)c(c(/C=N/N5CCN(C)CC5)c(O)c4c3C2=O)NC(=O)/C(C)=C\C=C\[C@H](C)[C@H](O)[C@@H](C)[C@@H](O)[C@@H](C)[C@H](OC(C)=O)[C@@H]1C [RIF, rifampicin]
Cmax Plasma (median, DRV/RTV 1600/200 QD + DTG + RIF (n = 4)): 11240 ng/mL

SMILES: CC(C)c1nc(CN(C)C(=O)N[C@H](C(=O)N[C@@H](Cc2ccccc2)C[C@H](O)[C@H](Cc2ccccc2)NC(=O)OCc2cncs2)C(C)C)cs1 [RTV, ritonavir]
AUC(0-t) [2]: 9830 ng·h/mL | AUC(0-t) [4]: 6070 ng·h/mL
